# According to ChEMBL document CHEMBL6092162, “Identification of novel and potent triazoles targeting CYP51 for antifungal: Design, synthesis, and biological study” (Eur J Med Chem, 2024):
# Assays:
# Assay type in all cases: functional
# Candida albicans [1] = assay: Antifungal activity against Candida albicans SC5314 assessed as inhibition of fungal growth by CLSI M27-A3 guidelines based method
# Candida albicans [2] = assay: Antifungal activity against Candida albicans GIM 2.194 assessed as inhibition of fungal growth by CLSI M27-A3 guidelines based method
# Candida tropicalis = assay: Antifungal activity against Candida tropicalis GIM 2.183 assessed as inhibition of fungal growth by CLSI M27-A3 guidelines based method
# Candida parapsilosis = assay: Antifungal activity against Candida parapsilosis GIM 2.190 assessed as inhibition of fungal growth by CLSI M27-A3 guidelines based method; details: Lodderomyces parapsilosis
# Nakaseomyces glabratus = assay: Antifungal activity against Candida glabrata assessed as inhibition of fungal growth by CLSI M27-A3 guidelines based method
# Pichia kudriavzevii = assay: Antifungal activity against Candida krusei GIM 2.1 assessed as inhibition of fungal growth by CLSI M27-A3 guidelines based method
# Cryptococcus neoformans = assay: Antifungal activity against Cryptococcus neoformans CGMCC 2.3161 assessed as inhibition of fungal growth by CLSI M27-A3 guidelines based method
MIC80 (Candida albicans [1]) [µg/mL],MIC80 (Candida albicans [2]) [µg/mL],MIC80 (Candida tropicalis) [µg/mL],MIC80 (Candida parapsilosis) [µg/mL],MIC80 (Nakaseomyces glabratus) [µg/mL],MIC80 (Pichia kudriavzevii) [µg/mL],MIC80 (Cryptococcus neoformans) [µg/mL],SMILES
0.25,0.025,0.013,0.025,0.4,0.2,,CN(Cc1ccc(N2CCN(Cc3cccc(I)c3)CC2)cc1)CC(O)(Cn1cncn1)c1ccc(F)cc1F (stereo not given)
0.025,0.025,0.013,0.025,0.4,0.2,0.3,CN(Cc1ccc(N2CCN(Cc3ccc(-c4ccccc4)cc3)CC2)cc1)CC(O)(Cn1cncn1)c1ccc(F)cc1F (stereo not given)
4,8,2,4,> 32,> 32,> 32,CC(C)N1CCN(c2ccc(CN(C)CC(O)(Cn3cncn3)c3ccc(F)cc3F)cc2)CC1 (stereo not given)
0.25,1,1,0.5,32,32,16,CN(Cc1ccc(N2CCN(C(=O)C3CC3)CC2)cc1)CC(O)(Cn1cncn1)c1ccc(F)cc1F (stereo not given)
0.05,0.05,0.05,0.1,0.8,0.1,0.8,CN(Cc1ccc(N2CCN(Cc3ccc(Cl)cc3)CC2)cc1)CC(O)(Cn1cncn1)c1ccc(F)cc1F (stereo not given)
0.013,0.013,0.013,0.025,0.2,0.1,,CN(Cc1ccc(N2CCN(Cc3ccccc3I)CC2)cc1)CC(O)(Cn1cncn1)c1ccc(F)cc1F (stereo not given)
0.1,0.05,0.1,0.2,0.8,0.2,0.8,CN(Cc1ccc(N2CCN(Cc3ccc(F)cc3)CC2)cc1)CC(O)(Cn1cncn1)c1ccc(F)cc1F (stereo not given)
0.05,0.05,0.05,0.1,1.6,1.6,0.2,CN(Cc1ccc(N2CCN(Cc3ccc(C#N)cc3)CC2)cc1)CC(O)(Cn1cncn1)c1ccc(F)cc1F (stereo not given)
0.05,0.006,0.05,0.025,0.4,0.1,0.2,CN(Cc1ccc(N2CCN(Cc3ccccc3F)CC2)cc1)CC(O)(Cn1cncn1)c1ccc(F)cc1F (stereo not given)
1.6,3.2,1.6,3.2,3.2,3.2,3.2,CN(Cc1ccc(N2CCN(Cc3ccc(N)cc3)CC2)cc1)CC(O)(Cn1cncn1)c1ccc(F)cc1F (stereo not given)
0.013,0.013,0.25,0.013,0.4,,0.1,CC(C)c1ccc(CN2CCN(c3ccc(CN(C)CC(O)(Cn4cncn4)c4ccc(F)cc4F)cc3)CC2)cc1 (stereo not given)
0.013,0.006,0.006,0.006,0.1,0.1,,CN(Cc1ccc(N2CCN(Cc3c(Br)cccc3Br)CC2)cc1)CC(O)(Cn1cncn1)c1ccc(F)cc1F (stereo not given)
0.025,0.013,0.05,0.1,0.2,0.1,0.1,CN(Cc1ccc(N2CCN(Cc3ccc(I)cc3)CC2)cc1)CC(O)(Cn1cncn1)c1ccc(F)cc1F (stereo not given)
0.05,0.025,0.025,0.025,1.6,0.4,0.4,CN(Cc1ccc(N2CCN(Cc3cccc(F)c3)CC2)cc1)CC(O)(Cn1cncn1)c1ccc(F)cc1F (stereo not given)
0.4,0.8,0.4,0.8,3.2,3.2,3.2,CN(Cc1ccc(N2CCN(Cc3ccc(S(C)(=O)=O)cc3)CC2)cc1)CC(O)(Cn1cncn1)c1ccc(F)cc1F (stereo not given)
0.025,0.05,0.025,0.025,1.6,0.4,0.1,CN(Cc1ccc(N2CCN(Cc3ccc([N+](=O)[O-])cc3)CC2)cc1)CC(O)(Cn1cncn1)c1ccc(F)cc1F (stereo not given)
0.5,0.1,0.2,0.1,3.2,0.8,0.8,COc1ccc(CN2CCN(c3ccc(CN(C)CC(O)(Cn4cncn4)c4ccc(F)cc4F)cc3)CC2)cc1 (stereo not given)
